The subject of data set [1] is standardised antigens from H1N1 virus. The experiment in a line: Haemagglutination Inhibition Assay (HAI) with standardised antigens of influenza virus subtype H1N1. Format: cell-based. The following applies: for activity of lysine-acetylated derivatives against the influenza virus compared with the parent peptides of example 2.1: HAI with standardised antigens.
Data set [2] concerns live virus from subtype H1N1 of influenza virus. The experiment in a line: HAI with live influenza virus subtype H1N1. Format: cell-based. The following applies: live virus 4 HAU/25 μl; 1.5% v/v turkey red blood cells; FIG. 4A.
Data set [3] deals with live virus from subtype H3N2 of influenza virus. Kind of data set: HAI with live influenza virus subtype H3N2. Format: cell-based. The following applies: live virus 4 HAU/25 μl; 1.5% v/v turkey red blood cells; FIG. 4B.
Data set [4] deals with MDCK cells.
Data set [5] relates to human coronavirus HcoV-OC43. Kind of data set: HAI with heat-inactivated viral lysate of HcoV-OC43. Format: cell-based. The following applies: heat-inactivated viral lysate 4 UHA/25 μl; 1.5% v/v turkey RBC; FIG. 5.
In data set [6] the test system is measles virus. Kind of data set: HAI with heat-inactivated viral lysate of measles virus. The format is cell-based. The following applies: heat-inactivated viral lysate 4 UHA/25 μl; 1.5% v/v turkey RBC; FIG. 5.
The test system of data set [7] is human coronavirus SARS-CoV-2. Kind of data set: HAI with heat-inactivated viral lysate of SARS-CoV-2. Format: cell-based. The following applies: heat-inactivated viral lysate 4 UHA/25 μl; 1.5% v/v turkey RBC; FIG. 5.
Where [8] appears, read: MDCK cells, 20 hours, MTS, FIG. 10.
The mark [9] stands for this setting: MDCK cells, 20 hours, MTS, highest concentration tested 1 mg/ml.

Like-named read-outs stand apart in the source and are kept apart here. No end group written: not given here.

As to “LEK*GLDGAKK AVGGLGKLGKDAVEDLESVGKGAVHDVKDVL (LEK(Ac)GLDGAKKAVGGLGKLGKDAVEDLESVGKGAVHDVKDVL) [SEQ ID No.: 29]”, the “activity of lysine-acetylated derivatives against the influenza virus compared with the parent peptides of example 2.1” value in data set [1] is “the same activity”.
On the same count and under the same terms, as for “LEK*GLDGAKK AVGGLGKLGKDAVEDLESVGKGAVHDVKDVLD (LEK(Ac)GLDGAKKAVGGLGKLGKDAVEDLESVGKGAVHDVKDVLD) [SEQ ID No.: 19]”, the entry is “the same activity”.
Regarding “LEK*GLDGAKK AVGGLGKLGKDAVEDLESVGKGAVHDVKDVLDSVL (LEK(Ac)GLDGAKKAVGGLGKLGKDAVEDLESVGKGAVHDVKDVLDSVL) [SEQ ID No.: 20]”, the “activity against the H1N1 subtype of live influenza virus (HAI)” value (from here on “activity against the H1N1 subtype”) in data set [2] is “had activity”. In data set [3], the “activity against the H3N2 subtype of live influenza virus (HAI)” value (from here on “activity against the H3N2 subtype”) is “had activity”. For the same substance, the “activity of lysine-acetylated derivatives against the influenza virus compared with the parent peptides of example 2.1” value in data set [1] is reported as “the same activity”.
Regarding “LEKGLDGAKKAVGGLGKLGKDAVEDLESVGKGAVHDVKDVLD (LEKGLDGAKKAVGGLGKLGKDAVEDLESVGKGAVHDVKDVLD; LEK-42) [SEQ ID No.: 1, dermcidin fragment]”, the “activity against standardised antigens of H1N1 subtype of influenza virus (inhibiting haemagglutination)” value in data set [1] (H1N1 antigens 8 HAU/50 μl, 5% v/v turkey red blood cells, FIG. 2 and FIG. 3) is on record as “had activity”.
For “LEKGLDGAKKAVGGLGKLGKDAVEDLESVGKGAVHDVKDVLDSVL [SEQ ID No.: 2, LEKGLDGAKKAVGGLGKLGKDAVEDLESVGKGAVHDVKDVLDSVL]”, the “peptides that cause significant toxicity in cells” value in data set [4] (setting [8]) is listed as “none”. Further, the “cells in the culture that exhibited toxicity” value in data set [4] (setting [9]) is listed as 20%.
“RRKKAAVALLPAVLLALLAP [EB, RRKKAAVALL PAVLLALLAP, reference compound]”: in data set [4], the “cytotoxicity observed in the culture” value is listed as “total cell destruction” and the “cytotoxicity of the cells in the culture” value amounted to 50%.
For the substance “SSLLEK*GLDG AKKAVGGLGK LGKDA (SSLLEK(Ac)GLDGAKKAVGGLGKLGKDA) [SEQ ID No.: 28]”, the “activity of lysine-acetylated derivatives against the influenza virus compared with the parent peptides of example 2.1” value in data set [1] was “the same activity”.
“SSLLEK*GLDG AKKAVGGLGKLGKDAVEDLESVGKGAVHDVKDVLD (SSLLEK(Ac)GLDGAKKAVGGLGKLGKDAVEDLESVGKGAVHDVKDVLD) [SEQ ID No.: 21]”: the “activity against the H3N2 subtype” value in data set [3] is “had activity”. Also, in data set [1], the “activity of lysine-acetylated derivatives against the influenza virus compared with the parent peptides of example 2.1” value is recorded as “the same activity”.
For “SSLLEK*GLDG AKKAVGGLGKLGKDAVEDLESVGKGAVHDVKDVLDSV (SSLLEK(Ac)GLDGAKKAVGGLGKLGKDAVEDLESVGKGAVHDVKDVLDSV) [SEQ ID No.: 22]”, the “activity against the H1N1 subtype” value in data set [2] was “had activity”. For the same substance, the “activity against HcoV-OC43 (preventing adhesion of the virus to RBCs)” value in data set [5] is listed as “active”. Moreover, the “activity against the H3N2 subtype” value in data set [3] is reported as “had activity”. Also, in data set [6], the “activity against measles virus (preventing adhesion of the virus to RBCs)” value is reported as “active”. In data set [7], the “activity against SARS-CoV-2 (preventing adhesion of the virus to RBCs)” value is on record as “active”.
As to “SSLLEK*GLDG AKKAVGGLGKLGKDAVEDLESVGKGAVHDVKDVLDSVL (SSLLEK(Ac)GLDGAKKAVGGLGKLGKDAVEDLESVGKGAVHDVKDVLDSVL) [SEQ ID No.: 23]”, in data set [2], the “activity against the H1N1 subtype” value is “had activity”. For the same substance, the “activity against HcoV-OC43 (preventing adhesion of the virus to RBCs)” value in data set [5] is on record as “active”. Also, in data set [3], the “activity against the H3N2 subtype” value was “had activity”. Also, the “activity against measles virus (preventing adhesion of the virus to RBCs)” value in data set [6] was “active”. The “activity against SARS-CoV-2 (preventing adhesion of the virus to RBCs)” value in data set [7] was “active”. The “activity of lysine-acetylated derivatives against the influenza virus compared with the parent peptides of example 2.1” value in data set [1] is given as “the same activity”.
In the case of “SSLLEKGLDGAKKAVGGLGKLGKDAVEDLESVGKGAVHDVKDVLD [SEQ ID No.: 3, SSLLEKGLDGAKKAVGGLGKLGKDAVEDLESVGKGAVHDVKDVLD]”, the “peptides that cause significant toxicity in cells” value in data set [4] (setting [8]) is on record as “none”. In addition, the “cells in the culture that exhibited toxicity” value in data set [4] (setting [9]) was 20%.
Consider “SSLLEKGLDGAKKAVGGLGKLGKDAVEDLESVGKGAVHDVKDVLDSVL [SEQ ID No.: 5, SSLLEKGLDGAKKAVGGLGKLGKDAVEDLESVGKGAVHDVKDVLDSVL]”, for which, in data set [4], the “cells in the culture that exhibited toxicity” value came to 20% and the “peptides that cause significant toxicity in cells” value is reported as “none”.

Values taken from US12527837B2, “Peptide for use in the prevention and/or treatment of a disease caused by a virus affecting the respiratory tract” (priority 2020, dated 2026).
